For one molecule, MIC results are on record in patent publication US20250382565A1, “INTELLIGENT SUPERVISION SYSTEM AND METHOD FOR BACTERIAL CULTURE EQUIPMENT BASED ON BIG DATA” (Suzhou Foo-Chi Biomedical Technology Co., Ltd., priority 2024, published 2025).

The experiment relates to Staphylococcus aureus ATCC 29213. Put plainly: MIC of the antibiotic against the strain to be tested by E-test. Format: cell-based. To be noted: ATCC29213, cefuroxime E-test strip, overnight culturing, CLSI standard operation. How it is done:
Test of the MIC of the antibiotic against the strain to be tested: The strain ATCC 29213 for test is incubated onto a culture medium plate, and a bacterial colony grows after 18 to 24 h for future use. Normal saline (a phosphate buffer solution, or the like) is prepared and is then separately put into turbidimeter tubes, each of which has a capacity of 9 mL, and sterilization treatment is carried out (at 121° C. for 15 to 30 min). A particular number of bacteria are added into the turbidimeter tubes to make bacterial suspensions, and the MacFarland turbidity is adjusted to 0.5 to 1 McFarland. According to a CLSI standard operation and use guidelines of E-test, a swab is dipped into each bacterial suspension, and is applied to a culture medium. After the swab is dried for 15 to 20 min, a cefuroxime E-test strip is applied to a surface of a bacterial moss for overnight culturing. A scale at an intersection of an edge of an inhibition zone and the strip is read. The scale is an MIC value of ATCC 29213 against the cefuroxime, which is 2 ug/mL.

`CO/N=C(\C(=O)N[C@@H]1C(=O)N2C(C(=O)O)=C(COC(N)=O)CS[C@H]12)c1ccco1` [cefuroxime]: the MIC came out at 2 mg/L.
